Tests used:
Test in all cases: NCI SRB growth inhibition (single dose 10 µM / five-dose)
Format in all cases: cell-based, human
[1] = tested on: OVCAR-5; conditions: Homo sapiens; for inhibition at 10 µM: OVCAR-5 (Ovarian cancer), read-out: GI%
Procedure, shortened: (§1)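 Test agents were dissolved in DMSO at 400-fold the top final concentration, diluted in medium with 50 µg/mL gentamicin, and tested at five concentrations.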

[2] = tested on: MALME-3 M; conditions: Homo sapiens; for inhibition at 10 µM: MALME-3 M (Melanoma), read-out: GI%
Procedure, shortened: as §1

[3] = tested on: UO-31; conditions: Homo sapiens; for inhibition at 10 µM: UO-31 (Renal cancer), read-out: GI%
Procedure, shortened: as §1

[4] = tested on: SW-620; conditions: Homo sapiens; for inhibition at 10 µM: SW-620 (Colon cancer), read-out: GI%
Procedure, shortened: as §1

[5] = tested on: HS 578 T; conditions: Homo sapiens; for inhibition at 10 µM: HS 578 T (Breast cancer), read-out: GI%
Procedure, shortened: as §1

[6] = tested on: OVCAR-3; conditions: Homo sapiens; for inhibition at 10 µM: OVCAR-3 (Ovarian cancer), read-out: GI%
Procedure, shortened: as §1

[7] = tested on: MCF7; conditions: Homo sapiens; for inhibition at 10 µM: MCF7 (Breast cancer), read-out: GI%
Procedure, shortened: as §1

[8] = tested on: NCI-H322M; conditions: Homo sapiens; for inhibition at 10 µM: NCI-H322M (Non-small cell lung cancer), read-out: GI%
Procedure, shortened: as §1

[9] = tested on: HCC-2998; conditions: Homo sapiens; for inhibition at 10 µM: HCC-2998 (Colon cancer), read-out: GI%
Procedure, shortened: as §1

[10] = tested on: MOLT-4; conditions: Homo sapiens; for inhibition at 10 µM: MOLT-4 (Leukemia), read-out: GI%
Procedure, shortened: as §1

[11] = tested on: SK-MEL-28; conditions: Homo sapiens; for inhibition at 10 µM: SK-MEL-28 (Melanoma), read-out: GI%
Procedure, shortened: as §1

[12] = tested on: A549/ATCC; conditions: Homo sapiens; for inhibition at 10 µM: A549/ATCC (Non-small cell lung cancer), read-out: GI%
Procedure, shortened: as §1

[13] = tested on: RXF 393; conditions: Homo sapiens; for inhibition at 10 µM: RXF 393 (Renal cancer), read-out: GI%
Procedure, shortened: as §1

[14] = tested on: MDA-MB-435; conditions: Homo sapiens; for inhibition at 10 µM: MDA-MB-435 (Melanoma), read-out: GI%
Procedure, shortened: as §1

[15] = tested on: HCT-15; conditions: Homo sapiens; for inhibition at 10 µM: HCT-15 (Colon cancer), read-out: GI%
Procedure, shortened: as §1

[16] = tested on: NCI-H460; conditions: Homo sapiens; for inhibition at 10 µM: NCI-H460 (Non-small cell lung cancer), read-out: GI%
Procedure, shortened: as §1

[17] = tested on: HOP-92; conditions: Homo sapiens; HOP-92 (Non-small cell lung cancer), 10 µM; read-out: GI%
Procedure, shortened: as §1

[18] = tested on: SK-OV-3; conditions: Homo sapiens; for inhibition at 10 µM: SK-OV-3 (Ovarian cancer), read-out: GI%
Procedure, shortened: as §1

[19] = tested on: HCT-116; conditions: Homo sapiens, HCT-116; for inhibition at 10 µM: read-out: GI%
Procedure, shortened: as §1

[20] = tested on: PC-3; conditions: Homo sapiens; PC-3 (Prostate cancer), 10 µM; read-out: GI%
Procedure, shortened: as §1

[21] = tested on: CCRF-CEM; conditions: Homo sapiens; for inhibition at 10 µM: CCRF-CEM (Leukemia), read-out: GI%
Procedure, shortened: as §1

[22] = tested on: SF-539; conditions: Homo sapiens; for inhibition at 10 µM: SF-539 (CNS cancer), read-out: GI%
Procedure, shortened: as §1

[23] = tested on: T-47D; conditions: Homo sapiens, T47D; for inhibition at 10 µM: T-47D (Breast cancer), read-out: GI%
Procedure, shortened: as §1

[24] = tested on: U251; conditions: Homo sapiens, U-251; for inhibition at 10 µM: U251 (CNS cancer), read-out: GI%
Procedure, shortened: as §1

[25] = tested on: A498; conditions: Homo sapiens; for inhibition at 10 µM: A498 (Renal cancer), read-out: GI%
Procedure, shortened: as §1

[26] = tested on: OVCAR-8; conditions: Homo sapiens; for inhibition at 10 µM: OVCAR-8 (Ovarian cancer), read-out: GI%
Procedure, shortened: as §1

With `COc1ccc(-c2nc3cc(C(=O)NN=Cc4cccc(OC)c4O)ccc3[nH]2)cc1` [8k, N'-(2-Hydroxy-3-methoxybenzylidene)-2-(4-methoxyphenyl)-1H-benzo[d]imidazole-5-carbohydrazide] as the compound, how does the inhibition at 10 µM [1] read?
The inhibition at 10 µM was 69.5%.

And the GI50 ([1]; OVCAR-5, Ovarian cancer, five-dose)?
The GI50 was 7.72 µM.

And the inhibition at 10 µM [2]?
Its inhibition at 10 µM is greater than 100%.

What about the GI50 ([2]; MALME-3 M, Melanoma, five-dose) of the same compound?
The GI50 was 1.09 µM.

What about the inhibition at 10 µM [3] of the same compound?
Its inhibition at 10 µM is 83.2%.

And the GI50 ([3]; UO-31, Renal cancer, five-dose)?
The GI50 was 3.34 µM.

What about the inhibition at 10 µM [4] of the same compound?
The inhibition at 10 µM was 98.8%.

What about the GI50 ([4]; SW-620, Colon cancer, five-dose) of the same compound?
The GI50 was 4.35 µM.

And the inhibition at 10 µM [5]?
Its inhibition at 10 µM is 89.3%.

And the GI50 ([5]; HS 578 T, Breast cancer, five-dose)?
Its GI50 is 2.22 µM.

And the inhibition at 10 µM [6]?
Its inhibition at 10 µM is greater than 100%.

And the GI50 ([6]; OVCAR-3, Ovarian cancer, five-dose)?
The GI50 was 1.25 µM.

What about the inhibition at 10 µM [7] of the same compound?
The inhibition at 10 µM was greater than 100%.

And the GI50 ([7]; MCF7, Breast cancer, five-dose)?
The GI50 was 1.72 µM.

What about the inhibition at 10 µM [8] of the same compound?
Its inhibition at 10 µM is 95.9%.

And the GI50 ([8]; NCI-H322M, Non-small cell lung cancer, five-dose)?
Its GI50 is 3.04 µM.

And the inhibition at 10 µM [9]?
Its inhibition at 10 µM is greater than 100%.

And the GI50 ([9]; HCC-2998, Colon cancer, five-dose)?
The GI50 was 2.33 µM.

What about the inhibition at 10 µM [10] of the same compound?
Its inhibition at 10 µM is greater than 100%.

And the GI50 ([10]; MOLT-4, Leukemia, five-dose)?
Its GI50 is 3.8 µM.

And the inhibition at 10 µM [11]?
The inhibition at 10 µM was greater than 100%.

What about the GI50 ([11]; SK-MEL-28, Melanoma, five-dose) of the same compound?
Its GI50 is 3.32 µM.

What about the inhibition at 10 µM [12] of the same compound?
The inhibition at 10 µM was 76.7%.

And the GI50 ([12]; A549/ATCC, Non-small cell lung cancer, five-dose)?
Its GI50 is 9.04 µM.

What about the inhibition at 10 µM [13] of the same compound?
The inhibition at 10 µM was greater than 100%.

And the GI50 ([13]; RXF 393, Renal cancer, five-dose)?
The GI50 was 2.58 µM.

And the inhibition at 10 µM [14]?
Its inhibition at 10 µM is 76%.

And the GI50 ([14]; MDA-MB-435, Melanoma, five-dose)?
Its GI50 is 6.2 µM.

And the inhibition at 10 µM [15]?
The inhibition at 10 µM was 78.1%.

What about the GI50 ([15]; HCT-15, Colon cancer, five-dose) of the same compound?
Its GI50 is 3.35 µM.

And the inhibition at 10 µM [16]?
The inhibition at 10 µM was greater than 100%.

And the GI50 ([16]; NCI-H460, Non-small cell lung cancer, five-dose)?
The GI50 was 3.27 µM.

What about the inhibition at 10 µM [17] of the same compound?
Its inhibition at 10 µM is 70.4%.

What about the inhibition at 10 µM [18] of the same compound?
Its inhibition at 10 µM is greater than 100%.

What about the GI50 ([18]; SK-OV-3, Ovarian cancer, five-dose) of the same compound?
The GI50 was 4.31 µM.

What about the GI50 [19] of the same compound?
The GI50 was 2.9 µM.

What about the inhibition at 10 µM [19] of the same compound?
The inhibition at 10 µM was greater than 100%.

What about the inhibition at 10 µM [20] of the same compound?
The inhibition at 10 µM was 87.9%.

And the inhibition at 10 µM [21]?
Its inhibition at 10 µM is greater than 100%.

And the GI50 ([21]; CCRF-CEM, Leukemia, five-dose)?
Its GI50 is 1.05 µM.

What about the inhibition at 10 µM [22] of the same compound?
Its inhibition at 10 µM is greater than 100%.

And the GI50 ([22]; SF-539, CNS cancer, five-dose)?
Its GI50 is 2.8 µM.

What about the inhibition at 10 µM [23] of the same compound?
The inhibition at 10 µM was 95%.

And the GI50 ([23]; T-47D, Breast cancer, five-dose)?
Its GI50 is 3.48 µM.

What about the inhibition at 10 µM [24] of the same compound?
The inhibition at 10 µM was 97.3%.

What about the GI50 ([24]; U251, CNS cancer, five-dose) of the same compound?
The GI50 was 2.17 µM.

What about the inhibition at 10 µM [25] of the same compound?
The inhibition at 10 µM was less than 5%.

And the GI50 ([25]; A498, Renal cancer, five-dose)?
Its GI50 is greater than 100 µM.

And the inhibition at 10 µM [26]?
The inhibition at 10 µM was greater than 100%.

And the GI50 ([26]; OVCAR-8, Ovarian cancer, five-dose)?
Its GI50 is 2.71 µM.

Which results are given for `COc1ccc(-c2nc3cc(C(=O)NN=Cc4ccc(OC)c(O)c4)ccc3[nH]2)cc1` [8l, N'-(3-Hydroxy-4-methoxybenzylidene)-2-(4-methoxyphenyl)-1H-benzo[d]imidazole-5-carbohydrazide]?
inhibition at 10 µM [1]: < 5%; inhibition at 10 µM [2]: 87.6%; inhibition at 10 µM [3]: 9.13%; inhibition at 10 µM [4]: 21.8%; inhibition at 10 µM [5]: 46.2%; inhibition at 10 µM [6]: 37.6%; inhibition at 10 µM [7]: 77.8%; inhibition at 10 µM [8]: 24%; inhibition at 10 µM [9]: 15%; inhibition at 10 µM [10]: 78.6%; inhibition at 10 µM [11]: 52.5%; inhibition at 10 µM [12]: 5.94%; inhibition at 10 µM [13]: 37.2%; inhibition at 10 µM [14]: 26.5%; inhibition at 10 µM [15]: < 5%; inhibition at 10 µM [16]: 15%; inhibition at 10 µM [17]: 17.4%; inhibition at 10 µM [18]: < 5%; inhibition at 10 µM [19]: 43.8%; inhibition at 10 µM [20]: 51.2%; inhibition at 10 µM [21]: 89.4%; inhibition at 10 µM [22]: 42.6%; inhibition at 10 µM [23]: 52.5%; inhibition at 10 µM [24]: 44.8%; inhibition at 10 µM [25]: < 5%; inhibition at 10 µM [26]: 28.1%

Which results are given for `COc1ccc(-c2nc3cc(C(=O)NN=Cc4cc(OC)ccc4OC)ccc3[nH]2)cc1` [8m, N'-(2,5-Dimethoxybenzylidene)-2-(4-methoxyphenyl)-1H-benzo[d]imidazole-5-carbohydrazide]?
inhibition at 10 µM [1]: < 5%; inhibition at 10 µM [2]: 18.3%; inhibition at 10 µM [3]: 9.12%; inhibition at 10 µM [4]: < 5%; inhibition at 10 µM [5]: < 5%; inhibition at 10 µM [6]: < 5%; inhibition at 10 µM [7]: 20.6%; inhibition at 10 µM [8]: < 5%; inhibition at 10 µM [9]: < 5%; inhibition at 10 µM [10]: 35.8%; inhibition at 10 µM [11]: 5.7%; inhibition at 10 µM [12]: 13.7%; inhibition at 10 µM [13]: 15.2%; inhibition at 10 µM [14]: < 5%; inhibition at 10 µM [15]: 13.7%; inhibition at 10 µM [16]: < 5%; inhibition at 10 µM [17]: < 5%; inhibition at 10 µM [18]: < 5%; inhibition at 10 µM [19]: 22.3%; inhibition at 10 µM [20]: 13.6%; inhibition at 10 µM [21]: 45.9%; inhibition at 10 µM [22]: 32.6%; inhibition at 10 µM [23]: 40.6%; inhibition at 10 µM [24]: 9.71%; inhibition at 10 µM [25]: < 5%; inhibition at 10 µM [26]: 23.6%

From publication PMC10893631, “Receptor-based pharmacophore modeling, molecular docking, synthesis and biological evaluation of novel VEGFR-2, FGFR-1, and BRAF multi-kinase inhibitors” (BMC Chemistry, 2024)
